Assay results from patent publication US20140094424A1, “MICROBICIDAL COMPOSITIONS AND METHODS OF PRODUCTION USE THEREOF” (priority 2011, published 2014).

How the values were obtained:
Assay in all cases: MBC (minimum bactericidal concentration) test in Wash NEXT reagent
Assay type in all cases: cell-based
[1] = test system: Pseudomonas aeruginosa (L)
Protocol: (§1) The stock organisms were thawed and subbed prior to beginning the MBC test. Molds were subbed to SDA plates one week before, and the bacteria were subbed to TAT agar plates 24 hours prior to the start of the test. All plates were incubated at 32 degrees C.
(§2) Each bacterial organism was inoculated into 40 ml sterile saline in a centrifuge tube to create a density of MacFarland #1. Two serial dilutions of 1:100 were then made, resulting in 10^−2 and 10^−4 concentrations. Each dilution was vortexed before it was sampled, and sterile Eppendorf pipette tips were used to make each transfer. The 10^−4 dilution was spiral plated to yield the initial inoculum concentration.
(§3) MBC trays were set up with the prepared test reagent. Using a Matrix pipettor, 100 μl aliquots of reagent were distributed into the wells, diluting the amount of preservative from 100% to 10% increments, using unpreserved reagent as the diluent. In one row, 100% non-preserved reagent acted as a positive control and served as a benchmark for a full mat of growth. In well #12H, 100 μl unpreserved reagent was pipetted, and this well was not inoculated with organisms, as it served as the negative control. Once all of the trays were prepared, the prepared bacteria/mold suspensions were poured into the MBC inoculating trays. These were placed onto the reagent trays, and 0.01 ml inoculum was introduced into the 100 μl of reagent in each well.
(§4) This was done by dipping a sterile cotton swab into each well, and absorbing all of the liquid in the well. The swab was rolled onto a TAT agar plate ensuring that the entire swab touches the agar. Plates ware incubated at 32 degrees C. for 48 hours to 7 days, depending on the organism. Observations for growth were performed by a scoring matrix using + for a full mat, +/− for some growth, a numerical value for an actual colony count, and—for no growth.
(§5) Below are tables that contain the data obtained in Example 1. The MBC test is scored by (+) indicating a full grown mat of organisms, equivalent to the organisms in the unpreserved reagent. (+/−) indicates there is some kill evident disturbing that mat or bringing the quantities down to an almost countable level. An actual number is the actual number of colonies growing at that concentration of preservative. (−) indicates no growth found. The MBC trays were stored at room temperature for the entire test.
(§6) The materials and methods and analysis of the MBC test were the same as in Example 1.

[2] = test system: Pseudomonas fluorescens (D)
Protocol: as §1, §2, §3, §4, §5, §6

Pseudomonas putida (K) = test system: Pseudomonas putida (K)
Protocol: as §1, §2, §3, §4, §5, §6

[3] = at 72 hours, listed as Na Azide

[N-]=[N+]=[N-] [Sodium Azide, sodium azide]
MBC test growth score ([1]; 10% preservative, 8 hour): + | MBC test growth score ([1]; 10% preservative, 24 hour): + | MBC test growth score ([1]; 10% preservative, 48 hour): + | MBC test growth score ([1]; 10% preservative, 72 hour): + | MBC test growth score ([1]; 20% preservative, 8 hour): + | MBC test growth score ([1]; 20% preservative, 24 hour): + | MBC test growth score ([1]; 20% preservative, 48 hour): + | MBC test growth score ([1]; 20% preservative, 72 hour): + | MBC test growth score ([1]; 30% preservative, 8 hour): + | MBC test growth score ([1]; 30% preservative, 24 hour): + | MBC test growth score ([1]; 30% preservative, 48 hour): + | MBC test growth score ([1]; 30% preservative, 72 hour): + | MBC test growth score ([1]; 40% preservative, 8 hour): + | MBC test growth score ([1]; 40% preservative, 24 hour): + | MBC test growth score ([1]; 40% preservative, 48 hour): + | MBC test growth score ([1]; 40% preservative, 72 hour): + | MBC test growth score ([1]; 50% preservative, 8 hour): + | MBC test growth score ([1]; 50% preservative, 24 hour): + | MBC test growth score ([1]; 50% preservative, 48 hour): + | MBC test growth score ([1]; 50% preservative, 72 hour): + | MBC test growth score ([1]; 60% preservative, 8 hour): + | MBC test growth score ([1]; 60% preservative, 24 hour): + | MBC test growth score ([1]; 60% preservative, 48 hour): + | MBC test growth score ([1]; 60% preservative, 72 hour): + | MBC test growth score ([1]; 70% preservative, 8 hour): + | MBC test growth score ([1]; 70% preservative, 24 hour): + | MBC test growth score ([1]; 70% preservative, 48 hour): + | MBC test growth score ([1]; 70% preservative, 72 hour): + | MBC test growth score ([1]; 80% preservative, 8 hour): + | MBC test growth score ([1]; 80% preservative, 24 hour): + | MBC test growth score ([1]; 80% preservative, 48 hour): + | MBC test growth score ([1]; 80% preservative, 72 hour): + | MBC test growth score ([1]; 90% preservative, 8 hour): + | MBC test growth score ([1]; 90% preservative, 24 hour): + | MBC test growth score ([1]; 90% preservative, 48 hour): + | MBC test growth score ([1]; 90% preservative, 72 hour): + | MBC test growth score ([1]; 100% preservative, 8 hour): + | MBC test growth score ([1]; 100% preservative, 24 hour): + | MBC test growth score ([1]; 100% preservative, 48 hour): + | MBC test growth score ([1]; 100% preservative, 72 hour): + | total kill at % preservative (MBC) [1, 3]: No kill @ 100% | MBC test growth score ([2]; 10% preservative, 8 hour): + | MBC test growth score ([2]; 10% preservative, 24 hour): + | MBC test growth score ([2]; 10% preservative, 48 hour): + | MBC test growth score ([2]; 10% preservative, 72 hour): + | MBC test growth score ([2]; 20% preservative, 8 hour): + | MBC test growth score ([2]; 20% preservative, 24 hour): + | MBC test growth score ([2]; 20% preservative, 48 hour): + | MBC test growth score ([2]; 20% preservative, 72 hour): + | MBC test growth score ([2]; 30% preservative, 8 hour): + | MBC test growth score ([2]; 30% preservative, 24 hour): + | MBC test growth score ([2]; 30% preservative, 48 hour): + | MBC test growth score ([2]; 30% preservative, 72 hour): + | MBC test growth score ([2]; 40% preservative, 8 hour): + | MBC test growth score ([2]; 40% preservative, 24 hour): + | MBC test growth score ([2]; 40% preservative, 48 hour): + | MBC test growth score ([2]; 40% preservative, 72 hour): + | MBC test growth score ([2]; 50% preservative, 8 hour): + | MBC test growth score ([2]; 50% preservative, 24 hour): + | MBC test growth score ([2]; 50% preservative, 48 hour): + | MBC test growth score ([2]; 50% preservative, 72 hour): + | MBC test growth score ([2]; 60% preservative, 8 hour): + | MBC test growth score ([2]; 60% preservative, 24 hour): + | MBC test growth score ([2]; 60% preservative, 48 hour): + | MBC test growth score ([2]; 60% preservative, 72 hour): + | MBC test growth score ([2]; 70% preservative, 8 hour): + | MBC test growth score ([2]; 70% preservative, 24 hour): + | MBC test growth score ([2]; 70% preservative, 48 hour): + | MBC test growth score ([2]; 70% preservative, 72 hour): + | MBC test growth score ([2]; 80% preservative, 8 hour): + | MBC test growth score ([2]; 80% preservative, 24 hour): + | MBC test growth score ([2]; 80% preservative, 48 hour): + | MBC test growth score ([2]; 80% preservative, 72 hour): + | MBC test growth score ([2]; 90% preservative, 8 hour): + | MBC test growth score ([2]; 90% preservative, 24 hour): + | MBC test growth score ([2]; 90% preservative, 48 hour): + | MBC test growth score ([2]; 90% preservative, 72 hour): + | MBC test growth score ([2]; 100% preservative, 8 hour): + | MBC test growth score ([2]; 100% preservative, 24 hour): + | MBC test growth score ([2]; 100% preservative, 48 hour): + | MBC test growth score ([2]; 100% preservative, 72 hour): + | total kill at % preservative (MBC) [2, 3]: No kill @ 100% | MBC test growth score (Pseudomonas putida (K); 10% preservative, 8 hour): + | MBC test growth score (Pseudomonas putida (K); 10% preservative, 24 hour): + | MBC test growth score (Pseudomonas putida (K); 10% preservative, 48 hour): + | MBC test growth score (Pseudomonas putida (K); 10% preservative, 72 hour): + | MBC test growth score (Pseudomonas putida (K); 20% preservative, 8 hour): + | MBC test growth score (Pseudomonas putida (K); 20% preservative, 24 hour): + | MBC test growth score (Pseudomonas putida (K); 20% preservative, 48 hour): + | MBC test growth score (Pseudomonas putida (K); 20% preservative, 72 hour): + | MBC test growth score (Pseudomonas putida (K); 30% preservative, 8 hour): + | MBC test growth score (Pseudomonas putida (K); 30% preservative, 24 hour): + | MBC test growth score (Pseudomonas putida (K); 30% preservative, 48 hour): + | MBC test growth score (Pseudomonas putida (K); 30% preservative, 72 hour): + | MBC test growth score (Pseudomonas putida (K); 40% preservative, 8 hour): + | MBC test growth score (Pseudomonas putida (K); 40% preservative, 24 hour): + | MBC test growth score (Pseudomonas putida (K); 40% preservative, 48 hour): + | MBC test growth score (Pseudomonas putida (K); 40% preservative, 72 hour): + | MBC test growth score (Pseudomonas putida (K); 50% preservative, 8 hour): + | MBC test growth score (Pseudomonas putida (K); 50% preservative, 24 hour): + | MBC test growth score (Pseudomonas putida (K); 50% preservative, 48 hour): + | MBC test growth score (Pseudomonas putida (K); 50% preservative, 72 hour): + | MBC test growth score (Pseudomonas putida (K); 60% preservative, 8 hour): + | MBC test growth score (Pseudomonas putida (K); 60% preservative, 24 hour): + | MBC test growth score (Pseudomonas putida (K); 60% preservative, 48 hour): + | MBC test growth score (Pseudomonas putida (K); 60% preservative, 72 hour): + | MBC test growth score (Pseudomonas putida (K); 70% preservative, 8 hour): + | MBC test growth score (Pseudomonas putida (K); 70% preservative, 24 hour): + | MBC test growth score (Pseudomonas putida (K); 70% preservative, 48 hour): + | MBC test growth score (Pseudomonas putida (K); 70% preservative, 72 hour): + | MBC test growth score (Pseudomonas putida (K); 80% preservative, 8 hour): + | MBC test growth score (Pseudomonas putida (K); 80% preservative, 24 hour): + | MBC test growth score (Pseudomonas putida (K); 80% preservative, 48 hour): + | MBC test growth score (Pseudomonas putida (K); 80% preservative, 72 hour): + | MBC test growth score (Pseudomonas putida (K); 90% preservative, 8 hour): + | MBC test growth score (Pseudomonas putida (K); 90% preservative, 24 hour): + | MBC test growth score (Pseudomonas putida (K); 90% preservative, 48 hour): + | MBC test growth score (Pseudomonas putida (K); 90% preservative, 72 hour): + | MBC test growth score (Pseudomonas putida (K); 100% preservative, 8 hour): + | MBC test growth score (Pseudomonas putida (K); 100% preservative, 24 hour): + | MBC test growth score (Pseudomonas putida (K); 100% preservative, 48 hour): + | MBC test growth score (Pseudomonas putida (K); 100% preservative, 72 hour): + | total kill at % preservative (MBC) (Pseudomonas putida (K); [3]): No kill @ 100%
